One molecule from paper PMC7031403, “A molecular switch regulating transcriptional repression and activation of PPARγ” (Nature Communications, 2020) can be followed below.

Experiment in all cases: Fluorescence polarization peptide interaction assay, NCoR ID2 peptide affinity, apo- or T0070907-bound wild type or mutant PPARγ LBD
Holding throughout (format): binding
For orientation: In fluorescence polarisation assays a small probe gives low polarisation when free and higher when bound to something large.

Test [1] has as its target T1, PPARγ LBD (wild type or mutant) (Homo sapiens, UniProt P37231, Y355A).
T1 construct: made in house; host or cells: Escherichia coli BL21(DE3)
To be noted: apo (DMSO) Y327A PPARγ LBD; one site-total binding fit; read-out: NCoR ID2 peptide affinity, mean of fit (log scale) (converted). Here is the method: (§1) Plates were incubated at 25 °C for 1 h, and fluorescence polarization was measured on a BioTek Synergy Neo multimode plate reader at […] wavelengths. Data were plotted using GraphPad Prism as fluorescence polarization signal in millipolarization units vs. protein concentration and fit to a one site—total binding equation.

For test [2], the target named is T2, PPARγ LBD (wild type or mutant) (Homo sapiens, UniProt P37231, Q314A).
T2 construct: made in house; host or cells: Escherichia coli BL21(DE3)
T2 sequence (P37231 231-505 Q314A): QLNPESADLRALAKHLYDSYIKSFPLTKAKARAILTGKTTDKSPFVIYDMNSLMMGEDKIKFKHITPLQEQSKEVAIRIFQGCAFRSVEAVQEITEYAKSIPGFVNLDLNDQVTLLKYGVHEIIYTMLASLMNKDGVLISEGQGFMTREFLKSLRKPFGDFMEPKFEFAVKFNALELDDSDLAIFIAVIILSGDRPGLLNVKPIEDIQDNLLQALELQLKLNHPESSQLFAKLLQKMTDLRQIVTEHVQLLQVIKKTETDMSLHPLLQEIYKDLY
T2 sequence (O75376 2256-2278 partner): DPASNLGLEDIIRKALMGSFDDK
To be noted: apo (DMSO) Q286A PPARγ LBD; one site-total binding fit; read-out: NCoR ID2 peptide affinity, mean of fit (log scale) (converted). On the procedure: as §1

Test [3] concerns the target T3, PPARγ LBD (wild type or mutant) (Homo sapiens, UniProt P37231, R308A).
T3 construct: made in house; host or cells: Escherichia coli BL21(DE3)
To be noted: apo (DMSO) R280A PPARγ LBD; one site-total binding fit; read-out: NCoR ID2 peptide affinity, mean of fit (log scale) (converted). On the procedure:
as §1

For test [4], the target named is T4, PPARγ LBD (wild type or mutant) (Homo sapiens, UniProt P37231, Q342A).
T4 construct: made in house; host or cells: Escherichia coli BL21(DE3)
T4 sequence (P37231 231-505 Q342A): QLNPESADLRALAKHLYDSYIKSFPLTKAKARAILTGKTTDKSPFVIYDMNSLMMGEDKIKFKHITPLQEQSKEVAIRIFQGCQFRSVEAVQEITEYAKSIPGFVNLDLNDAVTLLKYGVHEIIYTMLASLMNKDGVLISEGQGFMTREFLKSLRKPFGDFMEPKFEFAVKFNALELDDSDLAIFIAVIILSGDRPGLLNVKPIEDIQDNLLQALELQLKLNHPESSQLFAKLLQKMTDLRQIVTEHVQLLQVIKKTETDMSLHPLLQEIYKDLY
To be noted: apo (DMSO) Q314A PPARγ LBD; one site-total binding fit; read-out: NCoR ID2 peptide affinity, mean of fit (log scale) (converted). Here is the method:
as §1

For test [5], the target named is T5, PPARγ LBD (wild type or mutant) (Homo sapiens, UniProt P37231, H477A).
T5 construct: made in house; host or cells: Escherichia coli BL21(DE3)
T5 sequence (P37231 231-505 H477A): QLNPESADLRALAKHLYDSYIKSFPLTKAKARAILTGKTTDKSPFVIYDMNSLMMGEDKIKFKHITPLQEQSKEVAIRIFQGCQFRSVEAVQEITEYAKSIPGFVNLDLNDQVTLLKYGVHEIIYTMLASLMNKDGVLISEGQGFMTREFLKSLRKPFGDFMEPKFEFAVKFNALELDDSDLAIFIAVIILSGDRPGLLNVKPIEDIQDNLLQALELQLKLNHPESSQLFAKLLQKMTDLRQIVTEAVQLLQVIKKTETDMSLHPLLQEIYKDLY
To be noted: apo (DMSO) H449A PPARγ LBD; one site-total binding fit; read-out: NCoR ID2 peptide affinity, mean of fit (log scale) (converted). Here is the method: as §1

Test [6] addresses T6, PPARγ LBD (wild type or mutant) (Homo sapiens, UniProt P37231, D503R).
T6 construct: made in house; host or cells: Escherichia coli BL21(DE3)
To be noted: apo (DMSO) D475R PPARγ LBD; one site-total binding fit; read-out: NCoR ID2 peptide affinity, mean of fit (log scale) (converted). Here is the method:
as §1

Test [7] has as its target T7, PPARγ LBD (wild type or mutant) (Homo sapiens, UniProt P37231, N340A).
T7 construct: made in house; host or cells: Escherichia coli BL21(DE3)
To be noted: apo (DMSO) N312A PPARγ LBD; one site-total binding fit; read-out: NCoR ID2 peptide affinity, mean of fit (log scale) (converted). Here is the method: as §1

The target of test [8] is T8, PPARγ LBD (wild type or mutant) (Homo sapiens, UniProt P37231, R316A).
T8 construct: made in house; host or cells: Escherichia coli BL21(DE3)
T8 sequence (P37231 231-505 R316A): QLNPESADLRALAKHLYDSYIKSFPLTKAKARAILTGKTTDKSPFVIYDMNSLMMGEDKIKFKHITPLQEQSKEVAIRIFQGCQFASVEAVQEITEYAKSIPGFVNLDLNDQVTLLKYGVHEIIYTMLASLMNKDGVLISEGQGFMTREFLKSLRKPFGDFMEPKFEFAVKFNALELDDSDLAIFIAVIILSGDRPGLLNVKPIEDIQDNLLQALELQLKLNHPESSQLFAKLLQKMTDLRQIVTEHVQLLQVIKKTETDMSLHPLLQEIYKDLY
To be noted: apo (DMSO) R288A PPARγ LBD; one site-total binding fit; read-out: NCoR ID2 peptide affinity, mean of fit (log scale) (converted). Here is the method:
as §1

For test [9], the target named is T9, PPARγ LBD (wild type or mutant) (Homo sapiens, UniProt P37231, E499A).
T9 construct: made in house; host or cells: Escherichia coli BL21(DE3)
T9 sequence (P37231 231-505 E499A): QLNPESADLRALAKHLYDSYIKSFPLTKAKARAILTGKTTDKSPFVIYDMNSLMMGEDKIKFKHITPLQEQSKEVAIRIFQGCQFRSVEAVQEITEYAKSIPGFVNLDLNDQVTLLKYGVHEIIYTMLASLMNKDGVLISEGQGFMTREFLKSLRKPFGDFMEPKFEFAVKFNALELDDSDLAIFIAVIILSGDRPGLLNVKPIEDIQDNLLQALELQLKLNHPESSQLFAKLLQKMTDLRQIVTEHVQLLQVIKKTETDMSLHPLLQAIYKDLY
To be noted: apo (DMSO) E471A PPARγ LBD; one site-total binding fit; read-out: NCoR ID2 peptide affinity, mean of fit (log scale) (converted). Here is the method: as §1

The target of test [10] is T10, PPARγ LBD (wild type or mutant) (Homo sapiens, UniProt P37231, K347A).
T10 construct: made in house; host or cells: Escherichia coli BL21(DE3)
T10 sequence (P37231 231-505 K347A): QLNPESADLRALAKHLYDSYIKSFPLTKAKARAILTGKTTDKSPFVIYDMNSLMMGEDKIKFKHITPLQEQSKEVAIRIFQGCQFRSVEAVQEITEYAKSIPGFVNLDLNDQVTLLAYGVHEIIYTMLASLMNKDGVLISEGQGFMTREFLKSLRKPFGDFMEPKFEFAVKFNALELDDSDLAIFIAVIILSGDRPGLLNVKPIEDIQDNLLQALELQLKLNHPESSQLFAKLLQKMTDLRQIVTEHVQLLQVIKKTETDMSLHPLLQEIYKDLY
To be noted: apo (DMSO) K319A PPARγ LBD; one site-total binding fit; read-out: NCoR ID2 peptide affinity, mean of fit (log scale) (converted). On the procedure:
as §1

Test [11] concerns the target T11, PPARγ LBD (wild type or mutant) (Homo sapiens, UniProt P37231, D503A).
T11 construct: made in house; host or cells: Escherichia coli BL21(DE3)
To be noted: apo (DMSO) D475A PPARγ LBD; one site-total binding fit; read-out: NCoR ID2 peptide affinity, mean of fit (log scale) (converted). On the procedure:
as §1

The target of test [12] is T12, PPARγ LBD (wild type or mutant) (Homo sapiens, UniProt P37231, K395A).
T12 construct: made in house; host or cells: Escherichia coli BL21(DE3)
T12 sequence (P37231 231-505 K395A): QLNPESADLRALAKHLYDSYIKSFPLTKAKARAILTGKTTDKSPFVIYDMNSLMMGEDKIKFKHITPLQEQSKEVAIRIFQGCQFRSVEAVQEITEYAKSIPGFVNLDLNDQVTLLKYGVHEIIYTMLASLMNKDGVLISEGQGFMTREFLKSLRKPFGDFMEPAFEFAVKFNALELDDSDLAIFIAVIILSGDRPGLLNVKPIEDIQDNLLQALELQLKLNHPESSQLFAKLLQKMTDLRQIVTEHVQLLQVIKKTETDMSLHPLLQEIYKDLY
To be noted: apo (DMSO) K367A PPARγ LBD; one site-total binding fit; read-out: NCoR ID2 peptide affinity, mean of fit (log scale) (converted). On the procedure:
as §1

Test [13] concerns the target T13, PPARγ LBD (wild type or mutant) (Homo sapiens, UniProt P37231, Q322A).
T13 construct: made in house; host or cells: Escherichia coli BL21(DE3)
To be noted: apo (DMSO) Q294A PPARγ LBD; one site-total binding fit; read-out: NCoR ID2 peptide affinity, mean of fit (log scale) (converted). On the procedure:
as §1

For test [14], the target named is T14, PPARγ LBD (wild type or mutant) (Homo sapiens, UniProt P37231, Y505A).
T14 construct: made in house; host or cells: Escherichia coli BL21(DE3)
T14 sequence (P37231 231-505 Y505A): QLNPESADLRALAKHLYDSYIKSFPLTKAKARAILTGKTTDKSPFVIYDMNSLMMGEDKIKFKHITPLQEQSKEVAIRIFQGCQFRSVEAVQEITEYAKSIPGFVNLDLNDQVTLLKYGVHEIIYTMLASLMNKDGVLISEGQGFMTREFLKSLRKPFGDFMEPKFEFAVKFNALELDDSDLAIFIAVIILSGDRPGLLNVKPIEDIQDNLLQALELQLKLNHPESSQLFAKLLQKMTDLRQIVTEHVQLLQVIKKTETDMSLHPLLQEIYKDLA
To be noted: apo (DMSO) Y477A PPARγ LBD; one site-total binding fit; read-out: NCoR ID2 peptide affinity, mean of fit (log scale) (converted). On the procedure:
as §1

The target in test [15] is T15, PPARγ LBD (wild type or mutant) (Homo sapiens, UniProt P37231, K329A).
T15 construct: made in house; host or cells: Escherichia coli BL21(DE3)
T15 sequence (P37231 231-505 K329A): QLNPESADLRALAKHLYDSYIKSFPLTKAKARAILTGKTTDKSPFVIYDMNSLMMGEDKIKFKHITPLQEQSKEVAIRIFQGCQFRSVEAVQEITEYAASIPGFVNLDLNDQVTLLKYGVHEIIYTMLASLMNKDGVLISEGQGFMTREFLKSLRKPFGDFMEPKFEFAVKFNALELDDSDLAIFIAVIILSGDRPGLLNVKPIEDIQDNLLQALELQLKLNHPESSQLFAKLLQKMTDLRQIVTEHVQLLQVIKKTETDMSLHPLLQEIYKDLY
To be noted: apo (DMSO) K301A PPARγ LBD; one site-total binding fit; read-out: NCoR ID2 peptide affinity, mean of fit (log scale) (converted). On the procedure:
as §1

The target of test [16] is T16, PPARγ LBD (wild type or mutant) (Homo sapiens, UniProt P37231, H351A).
T16 construct: made in house; host or cells: Escherichia coli BL21(DE3)
To be noted: apo (DMSO) H323A PPARγ LBD; one site-total binding fit; read-out: NCoR ID2 peptide affinity, mean of fit (log scale) (converted). On the procedure:
as §1

Test [17] concerns the target T17, PPARγ LBD (wild type or mutant) (Homo sapiens, UniProt P37231, M392A).
T17 construct: made in house; host or cells: Escherichia coli BL21(DE3)
To be noted: apo (DMSO) M364A PPARγ LBD; one site-total binding fit; read-out: NCoR ID2 peptide affinity, mean of fit (log scale) (converted). Here is the method: as §1

For test [18], the target named is T18, PPARγ LBD (wild type or mutant) (Homo sapiens, UniProt P37231, E499R).
T18 construct: made in house; host or cells: Escherichia coli BL21(DE3)
To be noted: apo (DMSO) E471R PPARγ LBD; one site-total binding fit; read-out: NCoR ID2 peptide affinity, mean of fit (log scale) (converted). On the procedure:
as §1

T17 sequence (P37231 231-505 M392A): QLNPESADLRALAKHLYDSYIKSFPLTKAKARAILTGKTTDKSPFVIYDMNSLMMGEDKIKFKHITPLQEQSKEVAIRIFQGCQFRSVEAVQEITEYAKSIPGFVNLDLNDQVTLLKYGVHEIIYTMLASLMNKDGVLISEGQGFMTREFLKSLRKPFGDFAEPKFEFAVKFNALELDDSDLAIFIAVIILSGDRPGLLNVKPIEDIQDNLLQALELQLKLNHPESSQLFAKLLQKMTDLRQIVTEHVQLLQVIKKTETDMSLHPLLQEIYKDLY
T13 sequence (P37231 231-505 Q322A): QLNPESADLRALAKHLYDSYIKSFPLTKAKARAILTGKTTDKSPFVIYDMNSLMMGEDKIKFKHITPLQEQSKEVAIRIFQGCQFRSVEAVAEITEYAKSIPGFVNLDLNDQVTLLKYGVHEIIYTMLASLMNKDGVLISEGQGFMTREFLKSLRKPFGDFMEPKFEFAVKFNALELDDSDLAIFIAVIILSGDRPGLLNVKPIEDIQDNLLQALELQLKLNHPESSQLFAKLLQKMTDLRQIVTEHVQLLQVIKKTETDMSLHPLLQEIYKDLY
T11 sequence (P37231 231-505 D503A): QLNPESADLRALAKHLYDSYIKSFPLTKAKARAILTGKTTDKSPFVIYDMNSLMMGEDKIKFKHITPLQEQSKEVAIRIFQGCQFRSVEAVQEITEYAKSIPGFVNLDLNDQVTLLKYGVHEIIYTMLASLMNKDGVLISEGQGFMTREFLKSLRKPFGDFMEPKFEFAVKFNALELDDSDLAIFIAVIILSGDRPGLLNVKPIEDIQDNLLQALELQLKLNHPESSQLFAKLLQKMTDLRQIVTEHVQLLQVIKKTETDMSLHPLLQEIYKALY
T7 sequence (P37231 231-505 N340A): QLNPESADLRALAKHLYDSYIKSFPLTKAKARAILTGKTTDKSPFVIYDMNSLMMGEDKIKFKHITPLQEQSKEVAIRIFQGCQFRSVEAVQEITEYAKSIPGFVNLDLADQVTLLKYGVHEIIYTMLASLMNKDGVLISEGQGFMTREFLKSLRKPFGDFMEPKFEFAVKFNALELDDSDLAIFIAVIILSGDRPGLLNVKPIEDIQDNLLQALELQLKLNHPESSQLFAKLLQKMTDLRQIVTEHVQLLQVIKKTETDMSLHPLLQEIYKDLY
T1 sequence (P37231 231-505 Y355A): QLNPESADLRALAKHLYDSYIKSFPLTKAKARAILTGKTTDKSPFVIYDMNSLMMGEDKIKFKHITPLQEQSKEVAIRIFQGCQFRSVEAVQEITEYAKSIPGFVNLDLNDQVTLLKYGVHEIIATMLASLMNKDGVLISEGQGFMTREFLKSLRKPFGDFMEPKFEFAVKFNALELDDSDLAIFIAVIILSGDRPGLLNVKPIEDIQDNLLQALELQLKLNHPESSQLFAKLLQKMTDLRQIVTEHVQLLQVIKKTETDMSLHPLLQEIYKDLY
T3 sequence (P37231 231-505 R308A): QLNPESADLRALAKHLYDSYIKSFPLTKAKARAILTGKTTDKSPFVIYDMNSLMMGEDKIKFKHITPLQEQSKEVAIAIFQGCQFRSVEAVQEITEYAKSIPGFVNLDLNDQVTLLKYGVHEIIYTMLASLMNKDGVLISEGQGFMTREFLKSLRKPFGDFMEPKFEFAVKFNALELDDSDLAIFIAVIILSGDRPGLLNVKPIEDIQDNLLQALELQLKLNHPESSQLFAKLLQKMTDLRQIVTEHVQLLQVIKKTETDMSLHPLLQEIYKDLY

With `CC[C@H](C)[C@H](NC(=O)[C@H](CC(=O)O)NC(=O)[C@H](CCC(=O)O)NC(=O)[C@H](CC(C)C)NC(=O)CNC(=O)[C@H](CC(C)C)NC(=O)[C@H](CC(N)=O)NC(=O)[C@H](CO)NC(=O)[C@H](C)NC(=O)[C@@H]1CCCN1C(=O)[C@H](CC(=O)O)NC(=O)CCCCCNC(=S)Nc1ccc2c(c1)C(=O)OC21c2ccc(O)cc2Oc2cc(O)ccc21)C(=O)N[C@H](C(=O)N[C@@H](CCCNC(=N)N)C(=O)N[C@@H](CCCCN)C(=O)N[C@@H](C)C(=O)N[C@@H](CC(C)C)C(=O)N[C@@H](CCSC)C(=O)NCC(=O)N[C@@H](CO)C(=O)N[C@@H](Cc1ccccc1)C(=O)N[C@@H](CC(=O)O)C(=O)N[C@@H](CC(=O)O)C(=O)N[C@@H](CCCCN)C(N)=O)[C@@H](C)CC` [NCoR-D2], the Kd in test [1] is 590 nM; in [2], 807 nM; in test [3], 766 nM; in test [4], 867 nM; in test [5], 1490 nM; in [6], 522 nM. In addition, the Kd is 1410 nM in [7]; 1200 nM in test [8]; 525 nM in test [9]; 2580 nM in test [10]; 621 nM in [11]; 1080 nM in [12]. The Kd in test [13] was 2420 nM; in [14], 822 nM; in test [15], 4930 nM; in [16], 621 nM; in [17] it was 38700 nM; in test [18] it was 348 nM.
